Test results as given in patent US20170348343A1, “METHODS OF TREATING HEPATITIS E VIRAL INFECTION” (Gilead Pharmasset LLC, priority 2016, published 2017).

Tested on: HEV
Experiment: HEV RNA test in a human subject with HEV infection (case, Example 1)
Type: in vivo
Experimental: A human subject was identified as having AIDS, Kaposi's sarcoma, non-Hodgkin's lymphoma, compensated cirrhosis, and a history of alcoholism. An HEV RNA test of the subject was conducted, and the result was positive, at approximately 20,000 IU/mL. The subject was started on ribavirin monotherapy, wherein ribavirin was administered to the subject at 800 mg once per day. […] The subject was then started on a treatment wherein ribavirin administration was continued at 800 mg per day and sofosbuvir was also administered at 400 mg per day. After four weeks of such treatment, the subject's HEV RNA levels were below the lower limit of detection of about 25 IU/mL.

## NC(=O)c1ncn([C@@H]2O[C@H](CO)[C@@H](O)[C@H]2O)n1 [ribavirin]
Ribavirin monotherapy 800 mg once per day for over one year, human subject, baseline HEV RNA approximately 20,000 IU/mL
  HEV status: remained HEV-positive

## CC(C)OC(=O)[C@H](C)N[P@](=O)(OC[C@H]1O[C@@H](n2ccc(=O)[nH]c2=O)[C@](C)(F)[C@@H]1O)Oc1ccccc1 [sofosbuvir, (S)-isopropyl 2-(((S)-(((2R,3R,4R,5R)-5-(2,4-dioxo-3,4-dihydropyrimidin-1(2H)-yl)-4-fluoro-3-hydroxy-4-methyltetrahydrofuran-2-yl)methoxy)(phenoxy)phosphoryl)amino)propanoate]
Sofosbuvir 400 mg per day together with continued ribavirin 800 mg per day, after four weeks, same subject, lower limit of detection about 25 IU/mL
  HEV RNA levels: < 25 IU/mL
